Source: patent publication US20030134401A1, “Process for the stereoselective preparation of functionalized vicinal diols” (priority 2001, published 2003)

Key:
Eph1 = assay: Hydrolysis of epoxy nitriles by cell free extract of recombinant E. coli BL21(DE3)[pEph1]; format: biochemical, Rhodotorula glutinis; details: 50 mM potassium phosphate buffer pH 7.5, 35-37° C., 10 mM epoxide
Method: Cell extracts (from cell suspensions prepared according to examples 9, 10 and 11) were prepared by sonication (5 minutes, duty cycle 30%, output control 3) using a Branson sonifier 250. To separate the cell extracts in a soluble and an insoluble fraction the disrupted cells in KPi-buffer were centrifuged for 10 minutes at 4° C. and 20,000×g. The supernatant, containing the soluble proteins, was called the S-fraction. The pellet, containing the insoluble proteins and cell debris, was resuspended in an equal volume of KPi-buffer and referred to as the P-fraction.
The racemic resolution of the epoxy nitrile was performed with the cell free extracts of E. coli BL21(DE3)[pEph1] containing 48 mg protein/L in an aqueous solution of 50 mM potassium phosphate buffer at pH 7.5, 35-37° C. The starting epoxide concentration used was 10 mM. After 150 minutes the resolution was stopped by short and rapid heating to 80° C. and enantiopure epoxide (>99% ee, GC-analysis) could be obtained with 50% conversion (100% of the theoretical yield). […]

whole cell R. glutinis = assay: Hydrolysis of epoxy nitriles by whole resting cells of Rhodotorula glutinis; format: cell-based, Rhodotorula glutinis CBS 8761; details: 50 mM potassium phosphate buffer pH 7.5, 35-37° C., 10 mM epoxide
Method: The racemic resolution of the epoxy nitriles was performed with 24 g/L (dry weight) of whole resting cells of Rhodotorula glutinis CBS 8761 in an aqueous solution of 50 mM potassium phosphate buffer at pH 7.5, 35-37° C. The starting epoxide concentration used was 10 mM. After 150 minutes the resolution was stopped by centrifugation and separation of the supernatant liquid and enantiopure epoxide (>99% ee, GC-analysis) could be obtained with 50% conversion (100% of the theoretical yield).
Determination of reaction and extraction progress as well as enantiomeric excess were performed by gas chromatography (GC) using fused silica cyclodextrin capillary column (FS-CYCLODEX alpha-I/P 50 m length, 0.32 mm ID, Chromatography Service GmbH) on an Hewlett-Packard 6890 gas chromatograph equipped with FID detector and using H2 as carrier gas at 120° C. and 0.6 bar pressure.
Examples 12 and 13 were carried out analogously to examples 8 and 10 using 2-cyano-3,3-dimethyl-oxirane as substrate.

SMILES	activity [U/g (protein)] cell free extract E. coli (Eph1)	activity [U/g (dry weight)] whole cell R. glutinis (whole cell R. glutinis)
N#CC1OC12CCCCC2 (racemic) [1-oxa-spiro[2.5]octane-2-carbonitrile]	3000 (example 16) U/g (protein)	6 (example 14) U/g (dry weight)
CC1(C)OC1C#N (stereo not shown) [2-cyano-3,3-dimethyl-oxirane]	300 (example 19) U/g (protein)	3 (example 18) U/g (dry weight)
